Assay: superoxide radical scavenging assay (SOR; NADH/PMS/NBT)
Assay type: biochemical
Conditions: for IC50 compared with propyl gallate standard: comparison in words, refers to Table 1; for radical scavenging activity in the SOR assay: qualitative statement; for IC50: super oxide scavenging assay, formazan absorbance at 560 nm after three minutes, concentration needed to scavenge 50% of super oxide radicals, read-out: SOI (IC50 ± SEM)
Procedure: The reaction mixture contained 10 μL of test samples (1 mM in dimethylsulfoxide), 90 μL of 0.1 M phosphate buffer (pH 7.4), 40 μL of (280 μM) β-nicotanamide adenine dinucleotide (NADH), 40 μL of (80 μM) nitro blue tetrazolium (NBT). The reaction was initiated by the addition of 20 μL of (8 μM) phenazine methosulphate (PMS). The solutions of NADH, NBT and PMS were prepared in phosphate buffer. The formation of superoxide was monitored by measuring the absorbance of the blue formazan dye after three minutes at 560 nm against the corresponding blank solutions in microtitre plate using Elisa (multiple reader spectra Max-3400). IC50 value represents concentration of compounds needed to scavenge 50% of super oxide radicals. Propyl gallate was used as a positive control. All chemicals used were of analytical grade (Sigma Chemicals, USA).

IC50 compared with propyl gallate standard | IC50 [µM] | SMILES | radical scavenging activity in the SOR assay | SOR activity on per-methylation (permethylated derivatives of the depsides)
lower than the propyl gallate standard | 97.9 ± 1.6 | CCCCCc1c2c(cc(O)c1C(=O)O)OC(=O)c1c(cc(OC)cc1C(=O)CCCC)O2 [Lobaric acid, lobaric acid] | exceptionally high percentage of radical scavenging activity | 
lower than the propyl gallate standard | 91.5 ± 2.1 | Cc1cc(OC(=O)c2c(C)cc(O)cc2O)cc(O)c1C(=O)O [Lecanoric acid, lecanoric acid] | exceptionally high percentage of radical scavenging activity | 
 | 106 ± 1.7 | CCCOC(=O)c1cc(O)c(O)c(O)c1 [propyl gallate, Propyl gallate, reference compound] |  | 
 | 127 ± 0.97 | Cc1cc(OC(=O)c2c(C)cc(O)cc2O)cc(O)c1C(=O)OC[C@H](O)[C@H](O)CO [Erythrin, erythrin] | exceptionally high percentage of radical scavenging activity | 
lower than the propyl gallate standard | 81.97 ± 0.31 | CCCc1cc(OC)cc(O)c1C(=O)Oc1c(OC)cc(CCC)c(C(=O)O)c1O [Sekikiac acid, sekikaic acid] | exceptionally high percentage of radical scavenging activity | 
 |  | COC(=O)c1c(C)cc(OC(=O)c2c(C)cc(OC)cc2OC)cc1OC [permethylated lecanoric acid] |  | lost

SMILES | IC50 compared with propyl gallate standard | IC50 [µM] | radical scavenging activity in the SOR assay | SOR activity on per-methylation (permethylated derivatives of the depsides)
COc1ccc(O)c(C(C)(C)C)c1 [BHA, butylated hydroxy anisole, reference compound] |  | 96 ± 1.75 |  | 
